Test results reported in patent US20210379040A1, “COMBINATION TREATMENT OF LIVER DISORDERS” (Terns Pharmaceuticals, Inc., priority 2020, published 2021).
pEC50: −log10 of the molar value. Counter-ions that a name gives are not always drawn. Like-named read-outs stand apart in the source and are kept apart here.

Legend:
[1] = cited from earlier work
[2] = system: FXR-regulated gene expression in human HuH7 hepatoma cells; experiment: cells; details: Huh-7, 11 h
Method: EC50 values for FXR-regulated gene expression were determined using a cell-based RNA assay.

[3] = Single-ascending dose clinical trial: plasma PK and safety
Method: (§1) SSAO inhibition was determined by measuring relative reductions in plasma H2O2 generation after addition of an exogenous substrate (benzylamine). […] Safety was assessed for 7 (±3) days after dosing.
(§2) Plasma PK parameters were determined by non-compartmental analysis. […] Percent change in total amine oxidase activity was determined relative to the corresponding pre-dose (baseline) samples.

[4] = male, human, in vivo
Method: as §1, §2

In the case of `CC[C@H]1[C@@H](O)[C@@H]2[C@H](CC[C@]3(C)[C@@H]([C@H](C)CCNC(=O)NS(=O)(=O)c4ccc(C(C)(C)C)cc4)CC[C@@H]23)[C@@]2(C)CC[C@@H](O)C[C@@H]12` [EDP-305], the “pruritus in longer term studies” value [1] is given as “known to result in pruritus”.

Molecule `CC[C@H]1[C@@H](O)[C@@H]2[C@H](CC[C@]3(C)[C@@H]([C@H](C)CCC(=O)O)CC[C@@H]23)[C@@]2(C)CC[C@@H](O)C[C@@H]12` [OCA, obeticholic acid, reference compound] has a pEC50 ([2]; read-out: EC50, BSEP Gene induction/HuH7) of 6.70, a pEC50 ([2]; read-out: EC50, FGF-19 Gene Induction/HuH7) of 6.89 and a pEC50 ([2]; read-out: EC50, SHP Gene induction/HuH7) of 6.70. The “pruritus in longer term studies” value [1] was “known to result in pruritus”.

For `O=C(O)c1ccnc(N2CC(O)(c3ccc(OCc4c(-c5c(Cl)cccc5Cl)noc4C4CC4)cc3Cl)C2)c1` [cilofexor], the “pruritus in longer term studies” value [1] is given as “known to result in pruritus”.

For `COC1CCN(c2ncc(OC/C(=C/F)CN)cn2)CC1` [tosylate salt of Compound 2], the “Subject incidence of TEAEs considered possibly treatment-related” value ([3]; 1 mg or placebo (n = 8)) was 0, the “Subject incidence of any TEAE” value ([3]; 1 mg or placebo (n = 8)) was 0 and the “TEAE frequency: constipation” value ([3]; 1 mg or placebo (n = 8)) was 0. The “TEAE frequency: contact dermatitis” value ([3]; 1 mg or placebo (n = 8)) was 0, the “TEAE frequency: dysgeusia” value ([3]; 1 mg or placebo (n = 8)) was 0 and the “TEAE frequency: headache” value ([3]; 1 mg or placebo (n = 8)) was 0. For the same molecule, the “TEAE frequency: sore throat” value ([3]; 1 mg or placebo (n = 8)) was 0, the “TEAE frequency: upper respiratory tract infection” value ([3]; 1 mg or placebo (n = 8)) was 0 and the “Subject incidence of TEAEs considered possibly treatment-related” value ([3]; 3 mg or placebo (n = 8)) was 0. For the same molecule, the “Subject incidence of any TEAE” value ([3]; 3 mg or placebo (n = 8)) was 0, the “TEAE frequency: constipation” value ([3]; 3 mg or placebo (n = 8)) was 0 and the “TEAE frequency: contact dermatitis” value ([3]; 3 mg or placebo (n = 8)) was 0. For the same molecule, the “TEAE frequency: dysgeusia” value ([3]; 3 mg or placebo (n = 8)) was 0, the “TEAE frequency: headache” value ([3]; 3 mg or placebo (n = 8)) was 0 and the “TEAE frequency: sore throat” value ([3]; 3 mg or placebo (n = 8)) was 0. The “TEAE frequency: upper respiratory tract infection” value ([3]; 3 mg or placebo (n = 8)) was 0, the “Subject incidence of TEAEs considered possibly treatment-related” value ([3]; 6 mg (n = 8)) was 0 and the “Subject incidence of any TEAE” value ([3]; 6 mg (n = 8)) was 2 (25). The “TEAE frequency: constipation” value ([3]; 6 mg (n = 8)) was 0, the “TEAE frequency: contact dermatitis” value ([3]; 6 mg (n = 8)) was 2 (25) and the “TEAE frequency: dysgeusia” value ([3]; 6 mg (n = 8)) was 0. For the same molecule, the “TEAE frequency: headache” value ([3]; 6 mg (n = 8)) was 0, the “TEAE frequency: sore throat” value ([3]; 6 mg (n = 8)) was 1 (12.5) and the “TEAE frequency: upper respiratory tract infection” value ([3]; 6 mg (n = 8)) was 0. The “Subject incidence of TEAEs considered possibly treatment-related” value ([3]; 10 mg or placebo (n = 8)) was 1 (12.5), the “Subject incidence of any TEAE” value ([3]; 10 mg or placebo (n = 8)) was 3 (37.5) and the “TEAE frequency: constipation” value ([3]; 10 mg or placebo (n = 8)) was 1 (12.5). For the same molecule, the “TEAE frequency: contact dermatitis” value ([3]; 10 mg or placebo (n = 8)) was 0, the “TEAE frequency: dysgeusia” value ([3]; 10 mg or placebo (n = 8)) was 1 (12.5) and the “TEAE frequency: headache” value ([3]; 10 mg or placebo (n = 8)) was 1 (12.5). The “TEAE frequency: sore throat” value ([3]; 10 mg or placebo (n = 8)) was 0, the “TEAE frequency: upper respiratory tract infection” value ([3]; 10 mg or placebo (n = 8)) was 1 (12.5) and the “Subject incidence of TEAEs considered possibly treatment-related” value ([3]; All (n = 32)) was 1 (3.1). The “Subject incidence of any TEAE” value ([3]; All (n = 32)) was 5 (15.6), the “TEAE frequency: constipation” value ([3]; All (n = 32)) was 1 (3.1) and the “TEAE frequency: contact dermatitis” value ([3]; All (n = 32)) was 2 (6.3). The “TEAE frequency: dysgeusia” value ([3]; All (n = 32)) was 1 (3.1), the “TEAE frequency: headache” value ([3]; All (n = 32)) was 1 (3.1) and the “TEAE frequency: sore throat” value ([3]; All (n = 32)) was 1 (3.1). The “TEAE frequency: upper respiratory tract infection” value ([3]; All (n = 32)) was 1 (3.1), the clearance from plasma ([3]; single doses, healthy humans) was “rapidly cleared from plasma” and the “TEAE frequency: oral herpes” value [4] was 1 (3.1).

In the case of `O=C(O)c1cc(F)c2nc(N3[C@@H]4CC[C@H]3C[C@@H](OCc3c(-c5ccccc5OC(F)(F)F)noc3C3CC3)C4)sc2c1` [tropifexor], the “pruritus in longer term studies” value [1] is listed as “known to result in pruritus”.
